Results on one compound are retold here after patent publication US20250170224A1, “METHODS AND COMPOSITIONS FOR TREATING MICROGLIAL DYSFUNCTION AND IMPROVING METABOLIC DYSFUNCTION” (Ultimate Medicine AG, priority 2021, published 2025).

Entries after “also recorded” stand apart in the source; their conditions may differ.

For the data set, the system named is microglia. The class given is in vivo. As for the experimental part: Mice of the aged group in the nontargeted metabolomics analysis were 17-18 months old. Except for nontargeted metabolomics and microbiota profiling, where only male mice were used, all groups included mice from both sexes. Mice were housed under a 12-hour light/12-hour dark cycle and temperatures of 18-23° C. with 40-60% humidity, with food and water given ad libitum. To avoid cage effects, mice from at least three different cages per experimental group were analyzed. […] For modulation of CML in aged animals, 18-month-old SPF housed C57BL/6 mice were treated orally every third day for 10 weeks with vehicle (20% hydroxypropyl-p-cyclodextrin in 1× phosphate-buffered saline (PBS)), 10 mg kg^−1 ellagic acid (EA) or 3,000 U kg^−1 intestinal alkaline phosphatase (IAP). To assess in vivo intestinal permeability, tracer fluorescein isothiocyanate (FITC)-labeled dextran (4 kDa: Sigma-Aldrich) was used. Briefly, mice were deprived of food 4 hours before and both food and water 4 hours after oral gavage using 200 μl of 80 mg ml^−1 FITC-dextran. Blood was collected retro-orbitally after 4 hours and fluorescence intensity was measured on fluorescence plates using an excitation wavelength of 493 nm and an emission wavelength of 518 nm. To assess in vivo intestinal permeability to CML, mice were treated with […] CML (0.36 mM). Blood was collected retro-orbitally immediately before and 4 hours after treatment. CML translocated into the circulation was measured by liquid chromatography-mass spectrometry (LC-MS). All animal experiments were approved by the local administration in Germany (Regierungsprasidium Freiburg) and were performed in accordance with the respective national, federal, and institutional regulations and the guidelines of the Federation of European Laboratory Animal Science Associations.
Mice were lethally anesthetized with ketamine (100 mg kg^−1 body weight) and xylazine (10 mg kg^−1 body weight) followed by perfusion with 1×PBS through the left heart chamber. For histology, brains were kept overnight in 4% paraformaldehyde (PFA). For flow cytometry and magnetic-activated cell sorting (MACS) beads cell sorting, brains were dissected, homogenized and filtered through a […] mesh. […] Myelin was removed from the top layer and the cell pellet was washed once with 1×PBS followed by antibody staining.
Brain specimens from the cortex were first fixed overnight in 3% glutaraldehyde at 4° C., washed with Sorensen buffer, and then transferred to 1% osmium tetroxide for 2 hours at room temperature. Next, samples were dehydrated by a graded series of ethanol (30-100%) followed by 100% propylene oxide, resin/propylene oxide (1:2 (v/v)) and resin/propylene oxide (2:1 (v/v)). Samples were embedded in resin via polymerization for 24 hours at 75° C. Then, 700-nm semithin sections were cut and stained with 2% toluidine blue to define the region of interest for further preparation of 70 nm ultrathin sections using an ultramicrotome (Leica Reichert Ultracut S) after contrasting the sections with uranyl acetate and lead citrate (Leica Reichert Ultrastainer). To assess the mitochondrial phenotype in microglia, images were acquired with a ×7,900 or ×46,000 magnification using a CM100 electron microscope (Philips).
Cell sorting for RT-qPCR and RNA sequencing (RNA-seq) was performed on a MoFlo Astrios (Beckman Coulter; FIG. 7a). Before surface staining, dead cells were excluded by using the Fixable Viability Dye eFluor 780 (1:1,000 dilution; Thermo Fisher Scientific) followed by incubation with Fc receptor blocking antibody CD16/CD32 (1:200 dilution, clone 2.4G2; BD Bioscience). […] To assess microglial cellular reactive oxidative species (ROS), the CellROX DeepRed Reagent ([…]; Thermo Fisher Scientific) was used. To assess mitochondrial activity, Tetramethylrhodamine, Methyl Ester, Perchlorate (50 nM; Thermo Fisher Scientific) and MitoTracker Green FM (20 nM; Thermo Fisher Scientific) were used.

Setting [1] is: young-adult mice, i.p. once per day for two weeks.

As to `N[C@@H](CCCCNCC(=O)O)C(=O)O` [CML, N^6-carboxymethyllysine], the “brain CML concentrations after intraperitoneal injection of CML” value (young-adult SPF mice, targeted metabolomics) is recorded as “increased brain CML concentrations”. Moreover, the “damage to mitochondrial structures in microglia (electron microscopy)” value (young-adult mice treated with CML i.p.) is listed as “caused mitochondrial dysfunction by directly inflicting damage to mitochondrial structures”. Further, the “microglial gene expression (RNA-seq) after intraperitoneal injection” value (young-adult mice, CML versus vehicle) is “upregulated the expression of the ROS-related genes S100a9 and S100A8; also recorded: upregulated the expression of the ROS-related genes, S100a9 and S100A8”. For the same compound, under setting [1], the “cellular ATP stores in microglia” value is listed as “reduced cellular ATP stores”, the “metabolic function (metabolic/mitochondrial activity) of microglia” value is on record as “decreased metabolic activity” and the “recapitulation of the changes found in the microglia of aged mice” value is given as “partially recapitulate the changes found in the microglia of aged mice”. In addition, the “intracellular ROS production / oxidative stress in microglia” value (young-adult mice, i.p. once per day for two weeks, CellROX) is “increased oxidative stress”.
